The experiment has as its target human recombinant GPR65 (Homo sapiens, UniProt Q8IYL9). Description: Human GPR65 cAMP HTRF antagonist assay. It counts as cell-based. The method in brief:
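1321N1 astrocytoma cells stably expressing hrGPR65, with IBMX and EDTA, were preincubated with compound 30 min at room temperature, then acid-activated at assay pH 7.2 (control pH 7.9) for 30 min. cAMP read by HTRF (665/620 nm ratio); IC50 from 4-parameter fit normalised to high/low controls.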

Each structure is given as a SMILES string.

Chain of human recombinant GPR65 (Q8IYL9 whole entry): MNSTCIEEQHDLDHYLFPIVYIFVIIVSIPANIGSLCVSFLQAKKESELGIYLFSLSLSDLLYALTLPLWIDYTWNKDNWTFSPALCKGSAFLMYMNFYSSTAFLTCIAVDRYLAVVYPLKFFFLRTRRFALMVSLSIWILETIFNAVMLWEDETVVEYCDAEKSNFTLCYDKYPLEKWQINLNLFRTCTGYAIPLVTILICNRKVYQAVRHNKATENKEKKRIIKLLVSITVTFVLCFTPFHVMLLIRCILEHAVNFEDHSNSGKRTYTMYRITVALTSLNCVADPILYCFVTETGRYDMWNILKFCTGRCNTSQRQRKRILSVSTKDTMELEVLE

As usually defined, the IC50 is the concentration that inhibits the measured activity by half. Take `O=C(Nc1cc(Cl)c(-c2ccc(F)nc2)cn1)N1[C@H]2CC[C@@H]1c1n[nH]c(=O)cc1C2` [Compound 230, (6S,9R)-N-(4-Chloro-6′-fluoro-[3,3′-bipyridin]-6-yl)-3-oxo-3,5,6,7,8,9-hexahydro-2H-6,9-epiminocyclohepta[c]pyridazine-10-carboxamide]: the IC50 was less than 0.5 µM.

For the molecule `O=C(Nc1ccccc1)c1cc(F)c(NC(=O)N2[C@H]3CC[C@@H]2c2n[nH]c(=O)cc2C3)cc1Cl` [Compound 231, (6S,9R)—N-(5-Chloro-2-fluoro-4-(phenylcarbamoyl)phenyl)-3-oxo-3,5,6,7,8,9-hexahydro-2H-6,9-epiminocyclohepta[c]pyridazine-10-carboxamide], the IC50 was 0.5 to 5 µM. In the case of `Cc1nc2cc(-c3cc(F)c(NC(=O)N4[C@H]5CC[C@@H]4c4c[nH]c(=O)cc4C5)cc3Cl)ccc2o1` [Compound 232, (6S,9R)-N-(5-Chloro-2-fluoro-4-(2-methylbenzo[d]oxazol-5-yl)phenyl)-3-oxo-3,5,6,7,8,9-hexahydro-2H-6,9-epiminocyclohepta[c]pyridine-10-carboxamide], the IC50 is less than 0.5 µM. For the molecule `Cc1nc2cc(-c3cc(F)c(NC(=O)N4[C@H]5CC[C@@H]4c4ccnc(F)c4C5)cc3Cl)ccc2o1` [Compound 233, (5R,8S)-N-(5-Chloro-2-fluoro-4-(2-methylbenzo[d]oxazol-5-yl)phenyl)-1-fluoro-6,7,8,9-tetrahydro-5H-5,8-epiminocyclohepta[c]pyridine-10-carboxamide], the IC50 is less than 0.5 µM.

On to `Cc1nc2cc(-c3cc(F)c(NC(=O)N4[C@H]5CC[C@@H]4c4n[nH]c(=O)cc4C5)cc3Cl)ccc2o1` [Compound 234, (6S,9R)-N-(5-Chloro-2-fluoro-4-(2-methylbenzo[d]oxazol-5-yl)phenyl)-3-oxo-3,5,6,7,8,9-hexahydro-2H-6,9-epiminocyclohepta[c]pyridazine-10-carboxamide], for which the IC50 was less than 0.5 µM. For `O=C(Nc1cc(Cl)c(COc2ccccc2)cc1F)N1[C@H]2CC[C@@H]1c1n[nH]c(=O)cc1C2` [Compound 235, (6S,9R)-N-(5-Chloro-2-fluoro-4-(phenoxymethyl)phenyl)-3-oxo-3,5,6,7,8,9-hexahydro-2H-6,9-epiminocyclohepta[c]pyridazine-10-carboxamide], the IC50 was less than 0.5 µM. As to `O=C(Nc1cc(F)c(NC(=O)N2[C@H]3CC[C@@H]2c2n[nH]c(=O)cc2C3)cc1Cl)c1ccccc1` [Compound 236, (6S,9R)—N-(4-benzamido-5-chloro-2-fluorophenyl)-3-oxo-3,5,6,7,8,9-hexahydro-2H-6,9-epiminocyclohepta[c]pyridazine-10-carboxamide], the IC50 was in the range of 0.5 to 5 µM. The same measure for `O=C(Nc1cc(Cl)c(OCc2ccccc2)cc1F)N1[C@H]2CC[C@@H]1c1n[nH]c(=O)cc1C2` [Compound 237, (6S,9R)-N-(4-(Benzyloxy)-5-chloro-2-fluorophenyl)-3-oxo-3,5,6,7,8,9-hexahydro-2H-6,9-epiminocyclohepta[c]pyridazine-10-carboxamide]: less than 0.5 µM; for `O=C(Nc1cc(Cl)c(-c2ccc3nonc3c2)cn1)N1[C@H]2CC[C@@H]1c1n[nH]c(=O)cc1C2` [Compound 238, (6S,9R)-N-(5-(Benzo[c][1,2,5]oxadiazol-5-yl)-4-chloropyridin-2-yl)-3-oxo-3,5,6,7,8,9-hexahydro-2H-6,9-epiminocyclohepta[c]pyridazine-10-carboxamide]: less than 0.5 µM.

For `O=C(Nc1cc(Cl)c(-c2ccc(OC3CCC3)nc2)cc1F)N1[C@H]2CC[C@@H]1c1c[nH]c(=O)cc1C2` [Compound 239, (6S,9R)-N-(5-Chloro-4-(6-cyclobutoxypyridin-3-yl)-2-fluorophenyl)-3-oxo-3,5,6,7,8,9-hexahydro-2H-6,9-epiminocyclohepta[c]pyridine-10-carboxamide], the IC50 was less than 0.5 µM. Turning to `O=C(Nc1cc(Cl)c(-c2ccc(OCC(F)(F)F)nc2)cc1F)N1[C@H]2CC[C@@H]1c1ccnc(F)c1C2` [Compound 240, (5R,8S)-N-(5-Chloro-2-fluoro-4-(6-(2,2,2-trifluoroethoxy)pyridin-3-yl)phenyl)-1-fluoro-6,7,8,9-tetrahydro-5H-5,8-epiminocyclohepta[c]pyridine-10-carboxamide], the IC50 was less than 0.5 µM.

In the case of `O=C(Nc1cc(Cl)c(-c2ccc(OCC(F)(F)F)nc2)cc1F)N1[C@H]2CC[C@@H]1c1c[nH]c(=O)cc1C2` [Compound 241, (6S,9R)-N-(5-Chloro-2-fluoro-4-(6-(2,2,2-trifluoroethoxy)pyridin-3-yl)phenyl)-3-oxo-3,5,6,7,8,9-hexahydro-2H-6,9-epiminocyclohepta[c]pyridine-10-carboxamide], the IC50 was less than 0.5 µM. As to `O=C(Nc1cc(F)c(-c2ccc(F)nc2)cc1F)N1[C@H]2CC[C@@H]1c1ccnc(F)c1C2` [Compound 242, (5R,8S)-N-(2,5-Difluoro-4-(6-fluoropyridin-3-yl)phenyl)-1-fluoro-6,7,8,9-tetrahydro-5H-5,8-epiminocyclohepta[c]pyridine-10-carboxamide], the IC50 was less than 0.5 µM. The result for `O=C(Nc1cc(F)c(-c2ccc(F)nc2)cc1F)N1[C@H]2CC[C@@H]1c1c[nH]c(=O)cc1C2` [Compound 243, (6S,9R)-N-(2,5-Difluoro-4-(6-fluoropyridin-3-yl)phenyl)-3-oxo-3,5,6,7,8,9-hexahydro-2H-6,9-epiminocyclohepta[c]pyridine-10-carboxamide] reads less than 0.5 µM; that for `O=C(Nc1cc(F)c(-c2ccc(F)nc2)cc1F)N1[C@H]2CC[C@@H]1c1n[nH]c(=O)cc1C2` [Compound 244, (6S,9R)-N-(2,5-Difluoro-4-(6-fluoropyridin-3-yl)phenyl)-3-oxo-3,5,6,7,8,9-hexahydro-2H-6,9-epiminocyclohepta[c]pyridazine-10-carboxamide], less than 0.5 µM; that for `COc1ccc(-c2cc(F)c(NC(=O)N3[C@H]4CC[C@@H]3c3ccnc(F)c3C4)cc2F)cn1` [Compound 245, (5R,8S)-N-(2,5-Difluoro-4-(6-methoxypyridin-3-yl)phenyl)-1-fluoro-6,7,8,9-tetrahydro-5H-5,8-epiminocyclohepta[c]pyridine-10-carboxamide], less than 0.5 µM. For the molecule `COc1ccc(-c2cc(F)c(NC(=O)N3[C@H]4CC[C@@H]3c3c[nH]c(=O)cc3C4)cc2F)cn1` [Compound 246, (6S,9R)-N-(2,5-Difluoro-4-(6-methoxypyridin-3-yl)phenyl)-3-oxo-3,5,6,7,8,9-hexahydro-2H-6,9-epiminocyclohepta[c]pyridine-10-carboxamide], the IC50 is less than 0.5 µM. For the molecule `COc1ccc(-c2cc(F)c(NC(=O)N3[C@H]4CC[C@@H]3c3n[nH]c(=O)cc3C4)cc2F)cn1` [Compound 247, (6S,9R)-N-(2,5-Difluoro-4-(6-methoxypyridin-3-yl)phenyl)-3-oxo-3,5,6,7,8,9-hexahydro-2H-6,9-epiminocyclohepta[c]pyridazine-10-carboxamide], the IC50 is less than 0.5 µM.

Turning to `COc1cncc(-c2cc(F)c(NC(=O)N3[C@H]4CC[C@@H]3c3ccnc(F)c3C4)cc2Cl)c1` [Compound 248, (5R,8S)-N-(5-Chloro-2-fluoro-4-(5-methoxypyridin-3-yl)phenyl)-1-fluoro-6,7,8,9-tetrahydro-5H-5,8-epiminocyclohepta[c]pyridine-10-carboxamide], the IC50 is less than 0.5 µM. Turning to `COc1cncc(-c2cc(F)c(NC(=O)N3[C@H]4CC[C@@H]3c3c[nH]c(=O)cc3C4)cc2Cl)c1` [Compound 249, (6S,9R)-N-(5-Chloro-2-fluoro-4-(5-methoxypyridin-3-yl)phenyl)-3-oxo-3,5,6,7,8,9-hexahydro-2H-6,9-epiminocyclohepta[c]pyridine-10-carboxamide], the IC50 was less than 0.5 µM.

Turning to `O=C(Nc1cc(Cl)c(-c2ccccc2)cc1F)N1[C@H]2CC[C@@H]1c1ccnc(F)c1C2` [Compound 250, (5R,8S)-N-(2-Chloro-5-fluoro-[1,1′-biphenyl]-4-yl)-1-fluoro-6,7,8,9-tetrahydro-5H-5,8-epiminocyclohepta[c]pyridine-10-carboxamide], the concentration for half-maximal inhibition (IC50) is less than 0.5 µM. `O=C(Nc1cc(Cl)c(-c2ccccc2)cc1F)N1[C@H]2CC[C@@H]1c1c[nH]c(=O)cc1C2` [Compound 251, (6S,9R)-N-(2-Chloro-5-fluoro-[1,1′-biphenyl]-4-yl)-3-oxo-3,5,6,7,8,9-hexahydro-2H-6,9-epiminocyclohepta[c]pyridine-10-carboxamide]: the IC50 is less than 0.5 µM.

Regarding `O=C(Nc1cc(Cl)c(-c2cc(F)cnc2F)cc1F)N1[C@H]2CC[C@@H]1c1c[nH]c(=O)cc1C2` [Compound 252, (6S,9R)-N-(5-Chloro-4-(2,5-difluoropyridin-3-yl)-2-fluorophenyl)-3-oxo-3,5,6,7,8,9-hexahydro-2H-6,9-epiminocyclohepta[c]pyridine-10-carboxamide], the IC50 is less than 0.5 µM. Consider `O=C(Nc1cc(-c2ccc3nonc3c2)c(C(F)(F)F)cc1F)N1[C@H]2CC[C@@H]1c1ccnc(F)c1C2` [Compound 253, (5R,8S)-N-(5-(benzo[c][1,2,5]oxadiazol-5-yl)-2-fluoro-4-(trifluoromethyl)phenyl)-1-fluoro-6,7,8,9-tetrahydro-5H-5,8-epiminocyclohepta[c]pyridine-10-carboxamide], for which the IC50 was less than 0.5 µM.

As for `O=C(Nc1cc(-c2ccc3nonc3c2)c(C(F)(F)F)cc1F)N1[C@H]2CC[C@@H]1c1n[nH]c(=O)cc1C2` [Compound 254, (6S,9R)-N-(5-(Benzo[c][1,2,5]oxadiazol-5-yl)-2-fluoro-4-(trifluoromethyl)phenyl)-3-oxo-3,5,6,7,8,9-hexahydro-2H-6,9-epiminocyclohepta[c]pyridazine-10-carboxamide], the 50% inhibitory concentration (IC50) was less than 0.5 µM. `O=C(Nc1cc(-c2cncc(F)c2)c(C(F)(F)F)cc1F)N1[C@H]2CC[C@@H]1c1c[nH]c(=O)cc1C2` [Compound 255, (6S,9R)-N-(2-Fluoro-5-(5-fluoropyridin-3-yl)-4-(trifluoromethyl)phenyl)-3-oxo-3,5,6,7,8,9-hexahydro-2H-6,9-epiminocyclohepta[c]pyridine-10-carboxamide]: the IC50 was less than 0.5 µM.
